Among the data in patent US6673793B2, “Oxazinoquinolones useful for the treatment of viral infections” (Pharmacia & Upjohn Co., priority 2000, dated 2004) are IC50 values, retold here.

Several values for one entry are separate records, joined by “and”; a condition that tells them apart may be missing. Equal entries are not always repeated. Structures can show the parent of a compound that is named as a salt. Where two headings read alike, the source gives them in different places.

The experiment has as its target T1, CMV polymerase (Human cytomegalovirus, UniProt P08546).
T1 construct: made in house; host or cells: recombinant baculovirus-infected SF-9 cells
Kind of experiment: HCMV polymerase assay, scintillation proximity assay (SPA), modified version. It counts as biochemical. The following applies: modified HCMV polymerase SPA assay: compounds diluted in 100% DMSO, 4.5 mM DTT in polymerase buffer, different lot of CMV polymerase. The protocol:
The HCMV polymerase assay is performed using a scintillation proximity assay (SPA) as described in several references, such as N. D. Cook, et al., Pharmaceutical Manufacturing International, pages 49-53 (1992); K. Takeuchi, Laboratory Practice, September issue (1992); U.S. Pat. No. 4,568,649 (1986); which are incorporated by reference herein. Reactions are performed in 96-well plates. The assay is conducted in 100 μl volume with 5.4 mM HEPES (pH 7.5), 11.7 mM KCl, 4.5 mM MgCl2, 0.36 mg/ml BSA, and 90 nM ^3H-dTTP. Assays are run with and without CHAPS, (3-[(3-Cholamidopropyl)-dimethylammonio]-1-propane-sulfonate) at a final concentration of 2 mM. HCMV polymerase is diluted in enzyme dilution buffer containing 50% glycerol, 250 mM NaCl, 10 mM HEPES (pH 7.5), 100 μg/ml BSA, and 0.01% sodium azide. The HCMV polymerase, which is expressed in recombinant baculovirus-infected SF-9 cells and purified according to literature procedures, is added at 10% (or 10 μl) of the final reaction volume, i.e., 100 μl. Compounds are diluted in 50% DMSO and 10 μl are added to each well. Control wells contain an equivalent concentration of DMSO. Unless noted otherwise, reactions are initiated via the addition of 6 nM biotinylated poly(dA)-oligo(dT) template/primer to reaction mixtures containing the enzyme, substrate, and compounds of interest. Plates are incubated in a 25 C. or 37 C. H2O bath and terminated via the addition of 40 μl/reaction of 0.5 M EDTA (pH 8) per well. Reactions are terminated within the time-frame during which substrate incorporation is linear and varied depending upon the enzyme and conditions used, i.e., 30 min. for HCMV polymerase. Ten μl of streptavidin-SPA beads (20 mg/ml in PBS/10% glycerol) are added following termination of the reaction. Plates are incubated 10 min. at 37 C., then equilibrated to room temperature, and counted on a Packard Topcount. Linear regressions are performed and IC50's are calculated using computer software.
A modified version of the above HCMV polymerase assay is performed as described above, but with the following changes: Compounds are diluted in 100% DMSO until final dilution into assay buffer. In the previous assay, compounds are diluted in 50% DMSO. 4.5 mM dithiotherotol (DTT) is added to the polymerase buffer.
For orientation: In a scintillation proximity assay essentially only radioactivity close to the scintillant gives light.

T1 sequence (P08546 whole entry): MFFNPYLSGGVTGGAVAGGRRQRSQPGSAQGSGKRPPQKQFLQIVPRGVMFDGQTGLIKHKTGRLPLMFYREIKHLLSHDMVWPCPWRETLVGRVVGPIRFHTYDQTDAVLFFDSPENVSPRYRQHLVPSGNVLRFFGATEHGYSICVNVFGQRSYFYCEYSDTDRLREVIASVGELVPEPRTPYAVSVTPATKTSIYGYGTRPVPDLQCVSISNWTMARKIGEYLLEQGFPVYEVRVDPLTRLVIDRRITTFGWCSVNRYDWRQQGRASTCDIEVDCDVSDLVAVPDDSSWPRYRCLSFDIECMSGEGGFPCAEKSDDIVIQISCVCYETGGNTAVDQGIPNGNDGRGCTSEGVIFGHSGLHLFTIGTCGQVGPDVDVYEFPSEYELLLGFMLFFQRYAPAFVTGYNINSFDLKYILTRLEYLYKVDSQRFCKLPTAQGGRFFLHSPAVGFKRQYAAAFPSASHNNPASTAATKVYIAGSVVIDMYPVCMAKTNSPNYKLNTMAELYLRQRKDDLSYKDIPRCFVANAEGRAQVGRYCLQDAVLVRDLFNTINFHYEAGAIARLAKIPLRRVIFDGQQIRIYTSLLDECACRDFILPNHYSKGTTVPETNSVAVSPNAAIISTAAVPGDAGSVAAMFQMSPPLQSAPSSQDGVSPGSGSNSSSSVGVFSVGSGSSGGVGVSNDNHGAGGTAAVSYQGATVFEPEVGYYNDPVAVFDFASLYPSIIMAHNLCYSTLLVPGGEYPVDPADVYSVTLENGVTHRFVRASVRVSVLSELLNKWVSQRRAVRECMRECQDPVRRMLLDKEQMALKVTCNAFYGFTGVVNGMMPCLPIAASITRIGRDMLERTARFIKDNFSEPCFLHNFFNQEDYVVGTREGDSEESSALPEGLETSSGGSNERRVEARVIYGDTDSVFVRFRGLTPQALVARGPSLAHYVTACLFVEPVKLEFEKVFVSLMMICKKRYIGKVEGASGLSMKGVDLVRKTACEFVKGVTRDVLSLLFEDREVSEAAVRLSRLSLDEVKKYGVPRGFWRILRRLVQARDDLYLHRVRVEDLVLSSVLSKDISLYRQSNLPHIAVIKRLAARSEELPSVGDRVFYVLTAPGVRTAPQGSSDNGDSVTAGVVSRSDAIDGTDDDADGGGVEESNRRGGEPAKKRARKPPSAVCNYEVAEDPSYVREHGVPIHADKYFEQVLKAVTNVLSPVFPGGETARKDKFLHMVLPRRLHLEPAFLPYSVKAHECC

Consider `O=C(NCc1ccc(Cl)cc1)c1cn2c3c(cc(CN4CCOCC4)cc3c1=O)OC(CO)C2` (single isomer, unassigned) [Example 20, N-(4-Chlorobenzyl)-2-(R or S)-(hydroxymethyl)-9-(4-morpholinylmethyl)-7-oxo-2,3-dihydro-7H-[1,4]oxazino[2,3,4-ij]quinoline-6-carboxamide], for which the IC50 (read-out: CMV polymerase IC50) came out at 0.35 µM.
Regarding `O=C(NCc1ccc(Cl)cc1)c1cn2c3c(cc(CN4CCOCC4)cc3c1=O)OC(CO)C2` (single isomer, unassigned) [Example 21, N-(4-Chlorobenzyl)-2-(R or S)-(hydroxymethyl)-9-(4-morpholinylmethyl)-7-oxo-2,3-dihydro-7H-[1,4]oxazino[2,3,4-ij]quinoline-6-carboxamide], the IC50 (read-out: CMV polymerase IC50) is 0.67 µM.
Still for that read-out and setting: under `O=C(NCc1ccc(Cl)cc1)c1cn2c3c(cc(CN4CCOCC4)cc3c1=O)OC(CNCc1cccnc1)C2` (single isomer, unassigned) [Example 22, N-(4-chlorobenzyl)-9-(4-morpholinylmethyl)-7-oxo-2-(R or S)-{[(3-pyridinylmethyl)amino]methyl}-2,3-dihydro-7H-[1,4]oxazino[2,3,4-ij]quinoline-6-carboxamide] stands 0.3 µM; under `O=C(NCc1ccc(Cl)cc1)c1cn2c3c(cc(CN4CCOCC4)cc3c1=O)OC(CNCc1cccnc1)C2` (single isomer, unassigned) [Example 23, N-(4-Chlorobenzyl)-9-(4-morpholinylmethyl)-7-oxo-2-(R or S)-{[3-pyridinylmethyl)amino]methyl}-2,3-dihydro-7H-[1,4]oxazino[2,3,4-ij]quinoline-6-carboxamide], 1.1 µM; under `O=C(NCc1ccc(Cl)cc1)c1cn2c3c(cc(CN4CCOCC4)cc3c1=O)OC(c1ccccn1)C2` (single isomer, unassigned) [Example 57, N-(4-Chlorobenzyl)-9-(morpholin-4-ylmethyl)-7-oxo-2-(R or S)-pyridin-2-yl-2,3-dihydro-7H-[1,4]oxazino[2,3,4-ij]quinoline-6-carboxamide], 0.68 µM and 0.32 µM.
The same measure, in the same setting: under `O=C(NCc1ccc(Cl)cc1)c1cn2c3c(cc(CN4CCOCC4)cc3c1=O)OC(c1cccnc1)C2` (single isomer, unassigned) [Example 58, N-(4-Chlorobenzyl)-9-(morpholin-4-ylmethyl)-7-oxo-2-(R or S)-pyridin-3-yl-2,3-dihydro-7H-[1,4]oxazino[2,3,4-ij]quinoline-6-carboxamide] stands 0.57 µM and 0.27 µM; under `O=C(NCc1ccc(Cl)cc1)c1cn2c3c(cc(CN4CCOCC4)cc3c1=O)OC(CO)C2` (stereo not shown) [Example 1, N-(4-Chlorobenzyl)-2-(hydroxymethyl)-9-(4-morpholinylmethyl)-7-oxo-2,3-dihydro-7H-[1,4]oxazino[2,3,4-ij]quinoline-6-carboxamide], 0.61 µM.
Consider `O=C(NCc1ccc(Cl)cc1)c1cn2c3c(cc(CN4CCOCC4)cc3c1=O)OC(CNCC(O)CO)C2` (stereo not shown) [Example 6, N-(4-Chlorobenzyl)-2-{[(2,3-dihydroxypropyl)amino]methyl}-9-(4-morpholinylmethyl)-7-oxo-2,3-dihydro-7H-[1,4]oxazino[2,3,4-ij]quinoline-6-carboxamide], for which, for the setting “read-out: CMV polymerase IC50”, the IC50 was 0.66 µM.
As to `O=C(NCc1ccc(Cl)cc1)c1cn2c3c(cc(CN4CCOCC4)cc3c1=O)OC(CNCCO)C2` (stereo not shown) [Example 7, N-(4-Chlorobenzyl)-2-{[(2-hydroxyethyl)amino]methyl}-9-(4-morpholinylmethyl)-7-oxo-2,3-dihydro-7H-[1,4]oxazino[2,3,4-ij]quinoline-6-carboxamide], the IC50 (read-out: CMV polymerase IC50) was 0.67 µM.
Still for that read-out and setting: under `O=C(NCc1ccc(Cl)cc1)c1cn2c3c(cc(CN4CCOCC4)cc3c1=O)OC(CN(CCO)CCO)C2` (stereo not shown) [Example 9, 2-{[bis(2-Hydroxyethyl)amino]methyl}-N-(4-chlorobenzyl)-9-(4-morpholinylmethyl)-7-oxo-2,3-dihydro-7H-[1,4]oxazino[2,3,4-ij]quinoline-6-carboxamide] stands 0.59 µM.
Still for that read-out and setting: under `O=C(NCc1ccc(Cl)cc1)c1cn2c3c(cc(CN4CCOCC4)cc3c1=O)OC(CNCc1ccccn1)C2` (stereo not shown) [Example 10, N-(4-Chlorobenzyl)-9-(4-morpholinylmethyl)-7-oxo-2-{[(2-pyridinylmethyl)amino]methyl}-2,3-dihydro-7H-[1,4]oxazino[2,3,4-ij]quinoline-6-carboxamide] stands 0.62 µM; under `O=C(NCc1ccc(Cl)cc1)c1cn2c3c(cc(CN4CCOCC4)cc3c1=O)OC(CNCc1cccnc1)C2` (stereo not shown) [Example 11, N-(4-Chlorobenzyl)-9-(4-morpholinylmethyl)-7-oxo-2-{[(3-pyridinylmethyl)amino]methyl}-2,3-dihydro-7H-[1,4]oxazino[2,3,4-ij]quinoline-6-carboxamide], 0.54 µM.
On to `O=C(NCc1ccc(Cl)cc1)c1cn2c3c(cc(CN4CCOCC4)cc3c1=O)OC(CSCCO)C2` (stereo not shown) [Example 16, N-(4-Chlorobenzyl)-2-{[(2-hydroxyethyl)sulfanyl]methyl}-9-(4-morpholinylmethyl)-7-oxo-2,3-dihydro-7H-[1,4]oxazino[2,3,4-ij]quinoline-6-carboxamide], for which the IC50 (read-out: CMV polymerase IC50) worked out at 0.42 µM.
Consider `Cn1ccnc1SCC1Cn2cc(C(=O)NCc3ccc(Cl)cc3)c(=O)c3cc(CN4CCOCC4)cc(c32)O1` (stereo not shown) [Example 17], for which, under “read-out: CMV polymerase IC50”, the IC50 turned out to be 0.27 µM.
On to `O=C(NCc1ccc(Cl)cc1)c1cn2c3c(cc(CN4CCOCC4)cc3c1=O)OC(CSCC(O)CO)C2` (stereo not shown) [Example 19, N-(4-Chlorobenzyl)-2-{[(2,3-dihydroxypropyl)sulfanyl]methyl}-9-(4-morpholinylmethyl)-7-oxo-2,3-dihydro-7H-[1,4]oxazino[2,3,4-ij]quinoline-6-carboxamide], for which the IC50 (read-out: CMV polymerase IC50) was found to be 0.57 µM.
Still for that read-out and setting: for `CN(CCS(=O)(=O)O)C(=O)CCCCCCC(=O)OCC1Cn2cc(C(=O)NCc3ccc(Cl)cc3)c(=O)c3cc(CN4CCOCC4)cc(c32)O1` (stereo not shown) [Example 25, 2-[(8-{[6-{[(4-Chlorobenzyl)amino]carbonyl}-9-(4-morpholinylmethyl)-7-oxo-2,3-dihydro-7H-[1,4]oxazino[2,3,4-ij]quinolin-2-yl]methoxy}-8-oxooctanoyl)(methyl)amino]ethanesulfonic acid sodium salt] the value was 1.3 µM.
`COP(=O)(OC)OCC1Cn2cc(C(=O)NCc3ccc(Cl)cc3)c(=O)c3cc(CN4CCOCC4)cc(c32)O1` (stereo not shown) [Example 26, [6-{[(4-Chlorobenzyl)amino]carbonyl}-9-(4-morpholinylmethyl)-7-oxo-2,3-dihydro-7H-[1,4]oxazino[2,3,4-ij]quinolin-2-yl]methyl dimethyl phosphate] had an IC50 (CMV polymerase IC50 (μM)) of 0.53 µM.
Take `O=C(NCc1ccc(Cl)cc1)c1cn2c3c(cc(CN4CCOCC4)cc3c1=O)OC(c1ccccc1)C2` (stereo not shown) [Example 27, N-(4-Chlorobenzyl)-9-(4-morpholinylmethyl)-7-oxo-2-phenyl-2,3-dihydro-7H-[1,4]oxazino[2,3,4-ij]quinoline-6-carboxamide]: the IC50 (read-out: CMV polymerase IC50) amounted to 0.92 µM.
As for `O=C(NCc1ccc(Cl)cc1)c1cn2c3c(cc(CN4CCOCC4)cc3c1=O)OCC2c1ccccc1` (stereo not shown) [Example 29, N-(4-Chlorobenzyl)-9-(4-morpholinylmethyl)-7-oxo-3-phenyl-2,3-dihydro-7H-[1,4]oxazino[2,3,4-ij]quinoline-6-carboxamide], the IC50 (read-out: CMV polymerase IC50) stood at 1 µM.
With `O=C(NCc1ccc(Cl)cc1)c1cn2c3c(cc(CN4CCOCC4)cc3c1=O)OCC2CN1CCOCC1` (stereo not shown) [Example 30, N-(4-Chlorobenzyl)-3,9-bis(4-morpholinylmethyl)-7-oxo-2,3-dihydro-7H-[1,4]oxazino[2,3,4-ij]quinoline-6-carboxamide], the IC50 (read-out: CMV polymerase IC50) is 0.97 µM.
Regarding `O=C(NCc1ccc(Cl)cc1)c1cn2c3c(cc(C#CCO)cc3c1=O)OCC2(CO)CO` [Example 31, N-(4-Chlorobenzyl)-3,3-bis(hydroxymethyl)-9-(3-hydroxy-1-propynyl)-7-oxo-2,3-dihydro-7H-[1,4]oxazino[2,3,4-ij]quinoline-6-carboxamide], for the setting “read-out: CMV polymerase IC50”, the IC50 was determined as 5 µM.
`O=C(NCc1ccc(Cl)cc1)c1cn2c3c(cc(CCCO)cc3c1=O)OCC2(CO)CO` [Example 32, N-(4-Chlorobenzyl)-3,3-bis(hydroxymethyl)-9-(3-hydroxypropyl)-7-oxo-2,3-dihydro-7H-[1,4]oxazino[2,3,4-ij]quinoline-6-carboxamide]: for the setting “read-out: CMV polymerase IC50”, the IC50 came out at 3 µM.

The term IC50 denotes the concentration at which inhibition is half-maximal.
